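Five concentrations, 48 hours, 96-well plates. GI50 is the concentration that inhibits growth by half.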 Activity calls are given as the source filed them. Cut-off read from the data, not from the text of the source: active = GI50 up to about 1.1 µM and inactive = higher.
Key:
Assay in all cases: NCI tumour cell line growth inhibition, 48 h
SN12C = system: SN12C
LOX IMVI = system: LOX IMVI
SF-295 = system: SF-295
MDA-MB-435 = system: MDA-MB-435
M14 = system: M14
UO-31 = system: UO-31
UACC-62 = system: UACC-62
EKVX = system: EKVX
NCI-H23 = system: NCI-H23
OVCAR-4 = system: OVCAR-4
TK-10 = system: TK-10
A498 = system: A498
SNB-75 = system: SNB-75
MCF7 = system: MCF7
CCRF-CEM = system: CCRF-CEM
ACHN = system: ACHN
SK-MEL-5 = system: SK-MEL-5
HOP-92 = system: HOP-92
T47D = system: T47D
SK-MEL-2 = system: SK-MEL-2

Structure (SMILES) | GI50 (SN12C) | GI50 (LOX IMVI) | GI50 (SF-295) | GI50 (MDA-MB-435) | GI50 (M14) | GI50 (UO-31) | GI50 (UACC-62) | GI50 (EKVX) | GI50 (NCI-H23) | GI50 (OVCAR-4) | GI50 (TK-10) | GI50 (A498) | GI50 (SNB-75) | GI50 (MCF7) | GI50 (CCRF-CEM) | GI50 (ACHN) | GI50 (SK-MEL-5) | GI50 (HOP-92) | GI50 (T47D) | GI50 (SK-MEL-2)
Cc1c(C#N)c2nnn(-c3ccccc3)c(=O)n2c1-c1ccccc1 | 4.65 µM (inactive) | 4.12 µM (inactive) | 0.752 µM (active) | 0.307 µM (active) | 0.959 µM (active) | 5.75 µM (inactive) | 4.79 µM (inactive) | 2.61 µM (inactive) | 5.43 µM (inactive) | > 41.5 µM (inactive) | > 59.6 µM (inactive) | 2.1 µM (inactive) | 2.95 µM (inactive) | 2.39 µM (inactive) | 2.24 µM (inactive) | 8.97 µM (inactive) | 0.471 µM (active) | 31.3 µM (inactive) | 4.18 µM (inactive) | 4.53 µM (inactive)
O=C(O)c1ccc(Nc2nc3cc(C(F)(F)F)ccc3n3cccc23)cc1 |  | 10.2 µM (inactive) | 27.2 µM (inactive) | 34.7 µM (inactive) | 25.1 µM (inactive) | > 100 µM (inactive) | 23.9 µM (inactive) | 62.4 µM (inactive) | 35.8 µM (inactive) |  | 28.2 µM (inactive) | 42 µM (inactive) | 24.1 µM (inactive) | 35.6 µM (inactive) | 16.5 µM (inactive) | 24.9 µM (inactive) | 17.1 µM (inactive) | 64.6 µM (inactive) | 17.3 µM (inactive) | 31.3 µM (inactive)
COc1cccc(C2c3cc4c(cc3OC(NNC(N)=O)C2C)OCO4)c1OC (configuration not stated) | 27 µM (inactive) | 19.1 µM (inactive) | 18.1 µM (inactive) | 19.9 µM (inactive) | 17.1 µM (inactive) | 25.6 µM (inactive) | 22.3 µM (inactive) | 26.7 µM (inactive) | 30.8 µM (inactive) |  | 28.9 µM (inactive) | 18.2 µM (inactive) | 15.8 µM (inactive) | 31 µM (inactive) | 24.7 µM (inactive) | 26.9 µM (inactive) | 19.6 µM (inactive) | 19.1 µM (inactive) | 27.1 µM (inactive) | 20.5 µM (inactive)
COC(=O)C(CCSC)NC(=O)CNC(=O)CSc1nnc(COc2ccc(Cl)cc2)n1-c1ccccc1 (configuration not stated) | 18.4 µM (inactive) | 11.6 µM (inactive) |  | 17.9 µM (inactive) | 19.5 µM (inactive) | 10.4 µM (inactive) | 16.7 µM (inactive) |  | 16.6 µM (inactive) | 19.3 µM (inactive) | 17.6 µM (inactive) | 29.1 µM (inactive) | 19.1 µM (inactive) | 17.9 µM (inactive) | 7.83 µM (inactive) | 17 µM (inactive) | 17.3 µM (inactive) | 17.6 µM (inactive) | 18.4 µM (inactive) | 15.4 µM (inactive)
COc1c2cc(C(C)(C)C)cc1Cc1cccc(c1OCc1cccc([N+](=O)[O-])c1)Cc1cc(C(C)(C)C)cc(c1OC)Cc1cccc(c1OCc1cccc([N+](=O)[O-])c1)Cc1cc(C(C)(C)C)cc(c1OC)Cc1cccc(c1OCc1cccc([N+](=O)[O-])c1)C2 | > 50 µM (inactive) |  | > 50 µM (inactive) | > 50 µM (inactive) | > 50 µM (inactive) | > 50 µM (inactive) | > 50 µM (inactive) | > 50 µM (inactive) | > 50 µM (inactive) |  |  | > 50 µM (inactive) | 23.3 µM (inactive) | > 50 µM (inactive) | > 5 µM (inactive) | > 50 µM (inactive) | > 50 µM (inactive) | > 50 µM (inactive) | > 50 µM (inactive) | > 50 µM (inactive)
COc1cc2c(c(O)c1OC)C(=O)C1CCC(=O)N1C2c1cccc2ccccc12 (configuration not stated) | 77.4 µM (inactive) |  | 43.2 µM (inactive) | 44.5 µM (inactive) | 51.4 µM (inactive) | 31.3 µM (inactive) | 58.5 µM (inactive) | 37.5 µM (inactive) | 89.7 µM (inactive) | 47.4 µM (inactive) |  | > 100 µM (inactive) | > 100 µM (inactive) | 32.5 µM (inactive) | 18.5 µM (inactive) | 28.9 µM (inactive) | 31.6 µM (inactive) | 19.3 µM (inactive) | 36.6 µM (inactive) | 50.7 µM (inactive)
N#CC1=C(S)N(C2OC(CO)C(O)C(O)C2O)C(c2ccccc2)=CC1c1ccccc1 (configuration not stated) | 72.4 µM (inactive) | 28.1 µM (inactive) | 34.3 µM (inactive) | 39.9 µM (inactive) | 37.5 µM (inactive) | > 100 µM (inactive) | 21.7 µM (inactive) |  | > 100 µM (inactive) | 75.9 µM (inactive) | > 100 µM (inactive) | 59.3 µM (inactive) | 31.9 µM (inactive) | 43.1 µM (inactive) | 37.2 µM (inactive) | 62.1 µM (inactive) | 19.8 µM (inactive) | 31.8 µM (inactive) | 18.2 µM (inactive) | 6.53 µM (inactive)
COC(=O)[C@H](Cc1c[nH]c2ccccc12)NC(=O)c1ccc(CNC(=O)/C=C/c2cccc(Oc3ccccc3)c2)cc1 | > 100 µM (inactive) |  | > 100 µM (inactive) | 5.7 µM (inactive) | 23.2 µM (inactive) | > 100 µM (inactive) | 36.1 µM (inactive) | > 100 µM (inactive) | 52.6 µM (inactive) | 19.5 µM (inactive) | > 100 µM (inactive) | > 100 µM (inactive) | 79.1 µM (inactive) | > 100 µM (inactive) | 56.1 µM (inactive) | > 100 µM (inactive) | 30.3 µM (inactive) | 20.2 µM (inactive) | > 100 µM (inactive) | 18.9 µM (inactive)
CC(C(=O)O)/C(=C\c1ccc2c(c1)OCO2)C(=O)O (configuration not stated) | > 100 µM (inactive) | > 100 µM (inactive) | > 100 µM (inactive) | > 100 µM (inactive) | > 100 µM (inactive) | > 100 µM (inactive) | > 100 µM (inactive) | > 53.6 µM (inactive) | > 100 µM (inactive) | > 100 µM (inactive) | > 100 µM (inactive) | > 100 µM (inactive) | > 100 µM (inactive) | > 100 µM (inactive) |  | > 100 µM (inactive) | > 100 µM (inactive) | > 100 µM (inactive) | > 100 µM (inactive) | > 100 µM (inactive)
CN(C)C(=S)N/N=C\C=N/NC(=S)N(C)C | 0.286 µM (active) | 0.321 µM (active) | 0.158 µM (active) | 0.953 µM (active) | 0.139 µM (active) | 0.237 µM (active) | 0.802 µM (active) | 0.479 µM (active) | 1.63 µM (inactive) | 0.148 µM (active) | 2.53 µM (inactive) | 0.643 µM (active) | 1.75 µM (inactive) | 0.329 µM (active) |  | 0.238 µM (active) | 0.349 µM (active) | 1.65 µM (inactive) | 0.384 µM (active) | 0.361 µM (active)
C1CCN2CC34CC(CC5CCCN(C6CCCC3N6)C54)C2C1 (configuration not stated) | > 100 µM (inactive) | > 100 µM (inactive) | > 100 µM (inactive) | > 100 µM (inactive) | > 100 µM (inactive) |  | > 100 µM (inactive) | > 100 µM (inactive) | > 100 µM (inactive) | > 100 µM (inactive) | > 100 µM (inactive) | > 100 µM (inactive) | > 100 µM (inactive) | > 100 µM (inactive) | > 100 µM (inactive) | > 100 µM (inactive) | > 100 µM (inactive) | > 100 µM (inactive) | > 100 µM (inactive) | > 100 µM (inactive)
COC(=O)c1c(OC(C)=O)ccc2c1c1cc3ccccc3c(OC(C)=O)c1n2C | 40.6 µM (inactive) |  | 40.5 µM (inactive) | 25.6 µM (inactive) | 29.4 µM (inactive) | 17.1 µM (inactive) | 30.8 µM (inactive) | 41.3 µM (inactive) | 17.7 µM (inactive) | 19.7 µM (inactive) | 28.6 µM (inactive) | 13.7 µM (inactive) | 4.67 µM (inactive) | 9.33 µM (inactive) | 28.1 µM (inactive) | 8.09 µM (inactive) | 3.07 µM (inactive) | 10.3 µM (inactive) | 4.69 µM (inactive) | 29.7 µM (inactive)
N=c1c2c(=S)n(-c3ccccc3)c(=S)n(-c3ccccc3)c2nc(SCCN2CCOCC2)n1-c1ccccc1 | 2.06 µM (inactive) | 1.71 µM (inactive) | 7.19 µM (inactive) | 1.82 µM (inactive) | 1.93 µM (inactive) |  | 1.81 µM (inactive) | 3.16 µM (inactive) | 2.67 µM (inactive) | 1.76 µM (inactive) | 1.71 µM (inactive) | 3.52 µM (inactive) | 2.07 µM (inactive) | 1.35 µM (inactive) | 1.38 µM (inactive) | 1.87 µM (inactive) | 2.73 µM (inactive) | 1.82 µM (inactive) | 2.69 µM (inactive) | 2.86 µM (inactive)
O=C1CC(O)c2c(Br)sc(Br)c21 (configuration not stated) | 17.5 µM (inactive) | 4.48 µM (inactive) | 17.1 µM (inactive) | 5.58 µM (inactive) | 13.9 µM (inactive) | 2.61 µM (inactive) | 13.4 µM (inactive) | 10.4 µM (inactive) | 22.7 µM (inactive) |  | 3.54 µM (inactive) | 19.9 µM (inactive) | 16 µM (inactive) | 3.46 µM (inactive) | 0.728 µM (active) | 16.2 µM (inactive) | 17.7 µM (inactive) | 17.9 µM (inactive) | 9.59 µM (inactive) | 14 µM (inactive)

From ChEMBL document CHEMBL1201862, “PubChem BioAssay data set” (2004)
